Experiments:
[1] = target: T1, Falcilysin (Plasmodium falciparum (isolate 3D7), UniProt Q76NL8); assay: Inhibition of Plasmodium falciparum 3D7 FLN (55 to 1193 residues) expressed in Escherichia coli BL21 using Dabcyl-HKRHSFRMRG-EDANS as substrate preincubated for 5 mins followed by substrate addition measured for 10 mins by fluorescence assay
T1 sequence (Q76NL8 whole entry): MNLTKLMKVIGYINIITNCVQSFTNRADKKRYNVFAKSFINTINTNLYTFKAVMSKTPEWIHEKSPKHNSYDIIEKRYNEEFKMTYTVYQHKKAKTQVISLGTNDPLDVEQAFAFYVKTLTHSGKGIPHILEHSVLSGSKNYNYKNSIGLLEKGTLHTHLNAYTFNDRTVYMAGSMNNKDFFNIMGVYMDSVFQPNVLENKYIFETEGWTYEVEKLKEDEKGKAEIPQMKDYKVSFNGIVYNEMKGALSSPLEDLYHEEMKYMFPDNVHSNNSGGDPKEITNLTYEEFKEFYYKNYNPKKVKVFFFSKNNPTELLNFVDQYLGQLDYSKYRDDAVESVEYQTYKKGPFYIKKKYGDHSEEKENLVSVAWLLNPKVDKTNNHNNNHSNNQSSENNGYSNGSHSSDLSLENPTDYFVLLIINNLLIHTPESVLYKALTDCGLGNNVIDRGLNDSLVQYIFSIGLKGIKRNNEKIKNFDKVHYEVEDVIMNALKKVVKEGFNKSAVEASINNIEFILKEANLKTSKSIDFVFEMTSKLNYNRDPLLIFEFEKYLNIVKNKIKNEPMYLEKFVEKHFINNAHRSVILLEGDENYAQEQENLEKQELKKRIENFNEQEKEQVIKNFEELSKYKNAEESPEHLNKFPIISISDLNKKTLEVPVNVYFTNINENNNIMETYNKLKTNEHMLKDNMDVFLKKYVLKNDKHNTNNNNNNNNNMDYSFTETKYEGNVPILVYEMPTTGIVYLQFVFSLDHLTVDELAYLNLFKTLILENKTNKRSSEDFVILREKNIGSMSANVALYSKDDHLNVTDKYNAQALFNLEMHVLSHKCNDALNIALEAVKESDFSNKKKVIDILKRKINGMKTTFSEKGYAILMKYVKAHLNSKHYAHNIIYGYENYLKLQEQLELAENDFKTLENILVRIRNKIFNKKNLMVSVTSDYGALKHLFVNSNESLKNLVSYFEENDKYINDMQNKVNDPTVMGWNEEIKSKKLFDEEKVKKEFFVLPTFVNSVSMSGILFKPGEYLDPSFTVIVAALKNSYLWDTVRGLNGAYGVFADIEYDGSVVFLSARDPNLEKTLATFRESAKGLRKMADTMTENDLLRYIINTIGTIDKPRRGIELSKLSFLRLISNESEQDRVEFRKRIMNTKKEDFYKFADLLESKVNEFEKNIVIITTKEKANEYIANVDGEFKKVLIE

[2] = tested on: Plasmodium falciparum; assay: Parasiticidal activity against ring stage Plasmodium falciparum 3D7 infected in human RBC after 70 to 80 hrs by acridine orange staining-based assay; assay type: functional, organism-based; settings: 3D7, Erythrocyte

Structure (SMILES)	IC50 [1]	IC50 [2]
COc1ccc(S(=O)(=O)N2CCN(C(=O)c3cccc(Br)c3)CC2C(=O)NO)cc1 (configuration not stated)	10 µM	> 10 µM
COc1ccc(S(=O)(=O)N2CCN(C(=O)c3ccccc3Br)CC2C(=O)NO)cc1 (configuration not stated)	8 µM	> 10 µM
O=C(NO)C1CN(C(=O)c2ccccc2)CCN1S(=O)(=O)c1ccc(Br)cc1 (configuration not stated)	35 µM	> 10 µM
COc1ccc(S(=O)(=O)N2CCN(C(=O)c3ccc(-c4ccccc4)cc3)CC2C(=O)NO)cc1 (configuration not stated)	10 µM	5 µM
O=C(NO)C1CN(C(=O)c2ccc(F)cc2)CCN1S(=O)(=O)c1ccccc1 (configuration not stated)	> 50 µM	> 10 µM
O=C(NO)C1CN(C(=O)c2cccc(F)c2)CCN1S(=O)(=O)c1ccccc1 (configuration not stated)	> 50 µM	> 10 µM
CCCCN1CCN(S(=O)(=O)c2ccccc2)C(C(=O)NO)C1 (configuration not stated)	> 50 µM	> 10 µM
O=C(NO)C1CN(C(=O)c2ccc(F)cc2)CCN1S(=O)(=O)c1ccc(Br)cc1 (configuration not stated)	16 µM	> 10 µM
O=C(NO)C1CN(C(=O)c2ccc(Br)cc2)CCN1S(=O)(=O)c1ccccc1 (configuration not stated)	13 µM	> 10 µM
O=C(NO)C1CN(C(=O)c2ccc(Cl)c(Cl)c2)CCN1S(=O)(=O)c1ccccc1 (configuration not stated)	5 µM	> 10 µM
O=C(NO)C1CN(C(=O)c2ccccc2Br)CCN1S(=O)(=O)c1ccccc1 (configuration not stated)	7 µM	> 10 µM
O=C(NO)C1CN(C(=O)c2cccc(F)c2)CCN1S(=O)(=O)c1ccc(Br)cc1 (configuration not stated)	31 µM	> 10 µM
O=C(NO)C1CN(C(=O)c2ccc(-c3ccccc3)cc2)CCN1S(=O)(=O)c1ccc(Br)cc1 (configuration not stated)	1.4 µM	1.4 µM
O=C(NO)C1CN(CCCO)CCN1S(=O)(=O)c1ccccc1 (configuration not stated)	> 50 µM	> 10 µM
COc1ccc(S(=O)(=O)N2CCN(C(=O)c3ccccc3)CC2C(=O)NO)cc1 (configuration not stated)	> 50 µM	> 10 µM
CCC(=O)N1CCN(S(=O)(=O)c2ccc(Br)cc2)C(C(=O)NO)C1 (configuration not stated)	> 50 µM	> 10 µM
O=C(NO)C1CN(C(=O)c2ccccc2)CCN1S(=O)(=O)c1ccccc1 (configuration not stated)	40 µM	> 10 µM
COc1ccc(S(=O)(=O)N2CCN(S(=O)(=O)c3ccccc3)CC2C(=O)NO)cc1 (configuration not stated)	> 50 µM	> 10 µM
COc1ccc(S(=O)(=O)N2CCN(C(=O)c3ccc(Br)cc3)CC2C(=O)NO)cc1 (configuration not stated)	14 µM	> 10 µM
COc1ccc(S(=O)(=O)N2CCN(C(=O)c3ccc(Cl)c(Cl)c3)CC2C(=O)NO)cc1 (configuration not stated)	6 µM	> 10 µM
O=C(NO)C1CN(C(=O)c2ccc(-c3ccccc3)cc2)CCN1S(=O)(=O)c1ccccc1 (configuration not stated)	8 µM	> 10 µM

From ChEMBL document CHEMBL4219245, “Development of piperazine-based hydroxamic acid inhibitors against falcilysin, an essential malarial protease” (Bioorg Med Chem Lett, 2018)
